{
  "source": "patent US20190246647A1",
  "about": "“COMPOSITIONS AND RELATED METHODS FOR MODULATING ENDOSYMBIONTS” (Flagship Pioneering Innovations V, Inc., priority 2017, published 2019)",
  "key": {"[1]": {"tested_on": "Aphids LSR-1, A. pisum", "assay": "BCR-4 PNA microinjection: aphid survival and fecundity", "type": "in vivo, Acyrthosiphon pisum", "protocol": "(§1) Microinjection was performed using NanoJet III Auto-Nanoliter Injector with an in-house pulled borosilicate needle (Drummond Scientific; Cat#3-000-203-G/XL). Aphids were transferred using a paint brush to a tubing system connected to vacuum which held them in place during the injection. The injection site was at the ventral thorax of the aphid. The injection solutions were water (negative control) or 321 ng/μl of BCR-4 PNA in water. The injection volume was 20 nl for adult (4th and 5th instar) aphids at a rate of 2 nl/sec. Each treatment group had approximately the same number of individuals injected from each of the collection plants. After injection, aphids were released into a petri dish onto fava bean leaves that had stems in an Eppendorf tube filled with 1 ml water. Survival and fecundity were monitored over the course of the experiment.\nAphids LSR-1 (which harbor only Buchnera), A. pisum were grown on fava bean plants (Vroma vicia faba from Johnny's Selected Seeds) in a climate-controlled incubator (16 h light/8 h dark photoperiod; 60±5% RH; 25±2° C.). Prior to being used for aphid rearing, fava bean plants were grown in potting soil at 24° C. with 16 h of light and 8 h of darkness. To limit maternal effects or health differences between plants, 5-10 adults from different plants were distributed among 10 two-week-old plants, and allowed to multiply to high density for 5-7 days. For experiments, fourth and fifth instar aphids were collected from healthy plants and divided into two treatment groups: 1) water (negative control) or 2) BCR-4 PNA in water."}, "[2]": {"tested_on": "Aphids (LSR-1 strain, Acyrthosiphon pisum)", "assay": "BCR-4 PNA leaf perfusion: aphid survival and development", "type": "in vivo", "settings": "for effect on aphid development / effect on aphid mortality: leaf perfusion, vs water", "protocol": "Aphids (LSR-1 strain, Acyrthosiphon pisum) were grown on fava bean plants (Vroma vicia faba from Johnny's Selected Seeds) in a climate-controlled incubator (16 h light/8 h dark photoperiod; 60±5% RH; 25±2° C.). Prior to being used for aphid rearing, fava bean plants were grown in potting soil at 24° C. with 16 h of light and 8 h of darkness. To limit maternal effects or health differences between plants, 5-10 adults from different plants were distributed among 10 two-week-old plants and allowed to multiply to high density for 5-7 days. For experiments, first and second instar aphids were collected from healthy plants and divided into two different treatment groups: 1) those allowed to feed on leaves perfused with water, and, 2) those allowed to feed on leaves perfused with a BCR-4 PNA solution in water.\nFor each leaf perfusion, approximately 1 ml of water (negative control) or a 1 uM BCR-4 PNA solution was injected into a fava bean leaf. The stem of the leaf was then placed in a 1.5 ml Eppendorf that was sealed with parafilm. The leaf stem was then placed into a deep petri dish (Fisher Scientific, Cat# FB0875711) and aphids were applied to the leaves of the plant and allowed to feed. Old leaves were replaced with new, freshly injected leaves every 2-3 days throughout the experiment. For each treatment, 60 aphids were placed onto each leaf. Aphids were monitored daily for survival and dead aphids were removed when they were discovered. In addition, the developmental stage (1st, 2nd, 3rd, 4th, and 5th instar) was determined daily throughout the experiment."}, "[3]": {"tested_on": "BCR-4", "assay": "BCR-4 PNA microinjection: BCR-4 expression by RT-qPCR", "type": "in vivo, Acyrthosiphon pisum", "settings": "after 7 days", "protocol": "as §1\nAphids LSR-1 (which harbor only Buchnera), A. pisum were grown on fava bean plants (Vroma vicia faba from Johnny's Selected Seeds) in a climate-controlled incubator (16 h light/8 h dark photoperiod; 60±5% RH; 25±2° C.). […]\nAfter 7 days of treatment, RNA was extracted from the remaining aphids in each treatment group. […] RNA concentrations were measured using a nanodrop nucleic acid quantification. BCR-4 relative expression was measured by RT-qPCR. […] RT-qPCR data was analyzed using analytic (Thermo Fisher Scientific, QuantStudio Design and Analysis) software."}, "[4]": {"tested_on": "BCR-4", "assay": "BCR-4 PNA leaf perfusion: BCR-4 expression by RT-qPCR", "type": "in vivo, Acyrthosiphon pisum", "settings": "for effect on BCR-4 expression: day 7, vs water", "protocol": "After 7 days of treatment, RNA was extracted from the remaining aphids in each treatment group. Briefly, the aphid body surface was sterilized by dipping the aphid into a 6% bleach solution for approximately 5 seconds. Aphids were then rinsed in sterile water and total RNA was extracted from each individual aphid using the RNA extraction kit (Qiagen miRNeasy kit) according to manufacturer's instructions. RNA concentrations were measured using a nanodrop nucleic acid quantification. BCR-4 relative expression was measured by RT-qPCR. The primers used were ApBCR-4F ([…]; SEQ ID NO: 107) and ApBCR-4R ([…]; SEQ ID NO: 108). The internal reference gene primers were for Actin (housekeeping gene). The forward sequence was […]; SEQ ID NO: 109 and the reverse sequence was […]; SEQ ID NO: 110. RT-qPCR was performed using a qPCR amplification ramp of 1.6 degrees C./s and the following conditions: 1) 48° C. for 30 min, 2) 95° C. for 10 minutes, 3) 95° C. for 15 seconds, 4) 60° C. for 1 minute, 5) repeat steps 3-4 40×, 6) 95° C. for 15 seconds, 7) 60° C. for 1 minute, 8) ramp change to 0.15 degrees C./s, 9) 95° C. for 1 second. RT-qPCR data was analyzed using analytic (Thermo Fisher Scientific, QuantStudio Design and Analysis) software.\nAt 7 post-treatment, RNA was extracted from live aphids and RT-pPCR was done as described above (see Microinjection Delivery Experimental Design) to quantify expression of BCR-4."}, "[5]": {"tested_on": "Buchnera", "assay": "BCR-4 PNA leaf perfusion: Buchnera/aphid copies by qPCR", "type": "in vivo", "settings": "for effect on Buchnera titers: vs water", "protocol": "After 5 and 6 days of treatment, DNA was extracted from dead aphids from each treatment group. Briefly, the aphid body surface was sterilized by dipping the aphid into a 6% bleach solution for approximately 5 seconds. Aphids were then rinsed in sterile water and DNA was extracted from each individual aphid using a DNA extraction kit (Qiagen, DNeasy kit) according to manufacturer's instructions. DNA concentration was measured using a nanodrop nucleic acid quantification, and Buchnera and aphid DNA copy numbers were measured by qPCR. The primers used for Buchnera were Buch_groES_18F ([…]; SEQ ID NO: 101) and Buch_groES_98R ([…]; SEQ ID NO: 102) (Chong and Moran, 2016 PNAS). The primers used for aphid were ApEF1a 107F ([…]; SEQ ID NO: 103) and ApEF1a 246R ([…]; SEQ ID NO: 104) (Chong and Moran, 2016 PNAS). qPCR was performed using a qPCR amplification ramp of 1.6 degrees C./s and the following conditions: 1) 95° C. for 10 minutes, 2) 95° C. for 15 seconds, 3) 55° C. for 30 seconds, 4) repeat steps 2-3 40×, 5) 95° C. for 15 seconds, 6) 55° C. for 1 minute, 7) ramp change to 0.15 degrees C./s, 8) 95° C. for 1 second. qPCR data was analyzed using analytic (Thermo Fisher Scientific, QuantStudio Design and Analysis) software."}, "[6]": {"tested_on": "its target bacterial strains", "settings": "cited from earlier work"}, "[7]": {"tested_on": "Myzus persicae", "assay": "Bcr1 dsRNA in artificial diet: aphid survival", "type": "in vivo", "settings": "0.5 to 5 μg/ml in artificial diet; paper example", "protocol": "dsRNA solutions are formulated with 0 (negative control), 0.5, 1, or 5 μg/mL of Bcr1 dsRNA from Example 7 in 10 mL of TE buffer with 0.5% sucrose and essential amino acids.\n(§2) To prepare for the treatment, aphids are grown in a lab environment and medium. In a climate-controlled room (16 hr light photoperiod; 60±5% RH; 20±2° C.), plants are grown in a mixture of vermiculite and perlite and are infested with aphids. To limit maternal effects or health differences between plants, 5-10 adults from different plants are distributed among 10 two-week-old plants, and allowed to multiply to high density for 5-7 days. For experiments, second and third instar aphids are collected from healthy plants and divided into treatments so that each treatment receives approximately the same number of individuals from each of the collection plants.\n(§3) Wells of a 96-well plate are filled with 200 μl of artificial aphid diet (Febvay et al., Canadian Journal of Zoology 66(11):2449-2453, 1988) and the plate is covered with parafilm to make a feeding sachet. […]"}, "[8]": {"tested_on": "Rhopalosiphum maidis", "assay": "Bcr1 dsRNA in artificial diet: aphid survival", "type": "in vivo", "settings": "0.5 to 5 μg/ml in artificial diet; paper example", "protocol": "dsRNA solutions are formulated with 0 (negative control), 0.5, 1, or 5 μg/ml of Bcr1 dsRNA from Example 2 in 10 mL of TE buffer with 0.5% sucrose and essential amino acids.\nas §2, with “h” for “hr”, “C.), fava bean” for “C.),”\nas §3"}, "[9]": {"settings": "vs water, listed as PNA to BCR-4"}},
  "note": "Entries after “also recorded” stand apart in the source; their conditions may differ.",
  "data": [
    {"molecule": "YGRKKRRQRRR-CGTACAATAATCTCATGG (PNA against BCR-4; UniProt P04608 47-57, looked up, fragment) [BCR-4 PNA, peptide nucleic acid (PNA) to BCR-4 fused to a cell penetrating peptide (Tat)]", "values": [
      {"measurement": "offspring produced per adult", "setting": "[1]; at 3 and 7 days post-treatment", "value": 4, "unit": "offspring/adult"},
      {"measurement": "effect on aphid fecundity", "setting": "[1]; vs water", "value": "slight decrease in aphid fecundity"},
      {"measurement": "effect on aphid fecundity", "setting": "[1]; [9]", "value": "decreased fecundity"},
      {"measurement": "effect on aphid survival", "setting": "[1]; [9]", "value": "slight decrease in survival; also recorded: decrease in insect survival"},
      {"measurement": "aphids in the 3rd instar stage", "setting": "[2]; leaf perfusion 1 uM, day 2 post-treatment, first and second instar aphids", "value": 8, "unit": "%"},
      {"measurement": "aphids alive", "setting": "[2]; leaf perfusion 1 uM, day 7", "value": 30, "unit": "%"},
      {"measurement": "effect on aphid development", "setting": "[2]", "value": "delayed aphid development"},
      {"measurement": "effect on aphid mortality", "setting": "[2]", "value": "increased aphid death"},
      {"measurement": "effect on aphid development", "setting": "[2]; listed as PNA to BCR-4", "value": "slowed aphid development"},
      {"measurement": "effect on aphid mortality", "setting": "[2]; listed as PNA to BCR-4", "value": "increased aphid mortality"},
      {"measurement": "expression of BCR-4, water-injected fold higher than BCR-4 PNA-injected", "setting": "[3]; microinjection 20 nl of 321 ng/μl, 4th and 5th instar", "value": "approximately 2 fold"},
      {"measurement": "effect on BCR-4 expression", "setting": "[3]; microinjection, vs water", "value": "knockdown of BCR-4; also recorded: reduced BCR-4 expression"},
      {"measurement": "effect on BCR-4 expression", "setting": "[4]", "value": "reduction of BCR-4 expression"},
      {"measurement": "effect on BCR-4 expression", "setting": "[4]; listed as PNA to BCR-4", "value": "knocked down BCR-4 expression"},
      {"measurement": "median transcript levels of BCR-4, fold lower than water", "setting": "[4]; living aphids after 7 days", "value": "approximately 3 fold"},
      {"measurement": "mean ratio Buchnera/aphid copies", "setting": "[5]; dead aphids collected 5 and 6 days post-treatment", "value": "approximately 57"},
      {"measurement": "effect on Buchnera titers", "setting": "[5]", "value": "increased Buchnera titers"},
      {"measurement": "effect on Buchnera titers", "setting": "[5]; listed as PNA to BCR-4", "value": "misbalance in Buchnera titers"}
    ]},
    {"molecule": "nisin", "values": [
      {"measurement": "concentration showing antimicrobial activity", "setting": "[6]", "value": "single-digit nanomolar concentration"}
    ]},
    {"molecule": "Bcr1 dsRNA: dsRNA hairpin targeting Bcr1 gene (ACYPI32128), SEQ ID NO: 93 (nucleic acid, listed as Acyrthosiphon pisum) AUGAAACUGCUGCAUGGCUUUCUGAUUAUUAUGCUGACCAUGCAUCUGAGCAUUCAGUAUGCGUAUGGCGGCCCGUUUCUGACCAAAUAUCUGUGCGAUCGCGUGUGCCAUAAACUGUGCGGCGAUGAAUUUGUGUGCAGCUGCAUUCAGUAUAAAAGCCUGAAAGGCCUGUGGUUUCCGCAUUGCCCGACCGGCAAAGCGAGCGUGGUGCUGCAUAACUUUCUGACCAGCCCGUUUUUUUUUUCGGGCUGGUCAGAAAGUUAUGCAGCACCACGCUCGCUUUGCCGGUCGGGCAAUGCGGAAACCACAGGCCUUUCAGGCUUUUAUACUGAAUGCAGCUGCACACAAAUUCAUCGCCGCACAGUUUAUGGCACACGCGAUCGCACAGAUAUUUGGUCAGAAACGGGCCGCCAUACGCAUACUGAAUGCUCAGAUGCAUGGUCAGCAUAAUAAUCAGAAAGCCAUGCAGCAGUUUCAU", "values": [
      {"measurement": "survival rate of aphids vs control", "setting": "[7]", "value": "decreased"},
      {"measurement": "survival rate of aphids vs control", "setting": "[8]", "value": "decreased"}
    ]}
  ]
}
